Measurements taken from patent US10787452B2 (Vertex Pharmaceuticals Incorporated, priority 2012, dated 2020).

Test system: HCT116 colorectal cancer cells
Test: Cisplatin sensitization assay (96 h cell viability MTS);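 further: compound concentration needed to lower the Cisplatin-alone IC50 by a set fold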
Assay type: cell-based
Settings: 96 h MTS, compound plus Cisplatin
Method in brief: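 Viability was measured by MTS after 96 h co-exposure of HCT116 colorectal cells to a full-matrix dilution grid of compound and cisplatin (2-fold steps, highest final concentration 10 μM, added together). Plates were kept at 37 °C in 5% CO2, and the MTS reagent was incubated for 1 h before reading.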

COC1CCN(c2ccncc2NC(=O)c2c(N)nn3cc(Cl)cnc23)CC1 [I-N-73, 2-amino-6-chloro-N-(4-(4-methoxypiperidin-1-yl)pyridin-3-yl)pyrazolo[1,5-a]pyrimidine-3-carboxamide]
Cisplatin Sensitization Assay: +++ (Compounds with a Cisplatin sensitization value of <0.02 μM are marked with “+++.”)

COC(=O)C1CCN(c2ccncc2NC(=O)c2c(N)nn3cc(Cl)cnc23)CC1 [I-N-74, methyl-1-(3-(2-amino-6-chloropyrazolo[1,5-a]pyrimidine-3-carboxamido)pyridin-4-yl)piperidine-4-carboxylate]
Cisplatin Sensitization Assay: +++ (Compounds with a Cisplatin sensitization value of <0.02 μM are marked with “+++.”)

Nc1nn2cc(Cl)cnc2c1C(=O)Nc1cnccc1N1CCn2cncc2C1 [I-N-75, 2-amino-6-chloro-N-(4-(5,6-dihydroimidazo[1,5-a]pyrazin-7(8H)-yl)pyridin-3-yl)pyrazolo[1,5-a]pyrimidine-3-carboxamide]
Cisplatin Sensitization Assay: +++ (Compounds with a Cisplatin sensitization value of <0.02 μM are marked with “+++.”)

CN1CCN(c2ccncc2NC(=O)c2c(N)nn3cc(C(C)(C)C#N)cnc23)CC1 [I-N-76, 2-amino-6-(2-cyanopropan-2-yl)-N-(4-(4-methylpiperazin-1-yl)pyridin-3-yl)pyrazolo[1,5-a]pyrimidine-3-carboxamide]
Cisplatin Sensitization Assay: +++ (Compounds with a Cisplatin sensitization value of <0.02 μM are marked with “+++.”)

N#CCc1cnc2c(C(=O)Nc3cnccc3N3CCCC3)c(N)nn2c1 [I-N-77, 2-amino-6-(cyanomethyl)-N-(4-(pyrrolidin-1-yl)pyridin-3-yl)pyrazolo[1,5-a]pyrimidine-3-carboxamide]
Cisplatin Sensitization Assay: + (Compounds with a Cisplatin sensitization value >0.2 μM but <5 μM are marked with “+.”)

N#CCc1cnc2c(C(=O)Nc3cnccc3N3CCCCCC3)c(N)nn2c1 [I-N-79, 2-amino-N-(4-(azepan-1-yl)pyridin-3-yl)-6-(cyanomethyl)pyrazolo[1,5-a]pyrimidine-3-carboxamide]
Cisplatin Sensitization Assay: ++ (Compounds with a Cisplatin sensitization value >0.02 μM but <0.2 μM are marked with “++.”)

CN1CCN(c2c(F)cncc2NC(=O)c2c(N)nn3cc(CC#N)cnc23)CC1 [I-N-80, 2-amino-6-(cyanomethyl)-N-(5-fluoro-4-(4-methylpiperazin-1-yl)pyridin-3-yl)pyrazolo[1,5-a]pyrimidine-3-carboxamide]
Cisplatin Sensitization Assay: ++ (Compounds with a Cisplatin sensitization value >0.02 μM but <0.2 μM are marked with “++.”)

N#CCc1cnc2c(C(=O)Nc3cnccc3N3CCOCC3)c(N)nn2c1 [I-N-81, 2-amino-6-(cyanomethyl)-N-(4-morpholinopyridin-3-yl)pyrazolo[1,5-a]pyrimidine-3-carboxamide]
Cisplatin Sensitization Assay: +++ (Compounds with a Cisplatin sensitization value of <0.02 μM are marked with “+++.”)

CN1CCN(c2ccncc2NC(=O)c2c(N)nn3cc(CC#N)cnc23)CC1 [I-N-82, 2-amino-6-(cyanomethyl)-N-(4-(4-methylpiperazin-1-yl)pyridin-3-yl)pyrazolo[1,5-a]pyrimidine-3-carboxamide]
Cisplatin Sensitization Assay: ++ (Compounds with a Cisplatin sensitization value >0.02 μM but <0.2 μM are marked with “++.”)

N#CCc1cnc2c(C(=O)Nc3cnccc3N3CCC(O)CC3)c(N)nn2c1 [I-N-83, 2-amino-6-(cyanomethyl)-N-(4-(4-hydroxypiperidin-1-yl)pyridin-3-yl)pyrazolo[1,5-a]pyrimidine-3-carboxamide]
Cisplatin Sensitization Assay: ++ (Compounds with a Cisplatin sensitization value >0.02 μM but <0.2 μM are marked with “++.”)

N#CCc1cnc2c(C(=O)Nc3cnccc3N3CCCCC3)c(N)nn2c1 [I-N-84, 2-amino-6-(cyanomethyl)-N-(4-(piperidin-1-yl)pyridin-3-yl)pyrazolo[1,5-a]pyrimidine-3-carboxamide]
Cisplatin Sensitization Assay: +++ (Compounds with a Cisplatin sensitization value of <0.02 μM are marked with “+++.”)

CN1CCN(c2c(Cl)cncc2NC(=O)c2c(N)nn3cc(F)cnc23)CC1 [I-N-85, 2-amino-N-(5-chloro-4-(4-methylpiperazin-1-yl)pyridin-3-yl)-6-fluoropyrazolo[1,5-a]pyrimidine-3-carboxamide]
Cisplatin Sensitization Assay: ++ (Compounds with a Cisplatin sensitization value >0.02 μM but <0.2 μM are marked with “++.”)

Nc1nn2cc(Cl)cnc2c1C(=O)Nc1cnccc1N1CCC(N)CC1 [I-N-86, 2-amino-N-(4-(4-aminopiperidin-1-yl)pyridin-3-yl)-6-chloropyrazolo[1,5-a]pyrimidine-3-carboxamide]
Cisplatin Sensitization Assay: +++ (Compounds with a Cisplatin sensitization value of <0.02 μM are marked with “+++.”)

CNC1CCN(c2ccncc2NC(=O)c2c(N)nn3cc(Cl)cnc23)CC1 [I-N-87, 2-amino-6-chloro-N-(4-(4-(methylamino)piperidin-1-yl)pyridin-3-yl)pyrazolo[1,5-a]pyrimidine-3-carboxamide]
Cisplatin Sensitization Assay: ++ (Compounds with a Cisplatin sensitization value >0.02 μM but <0.2 μM are marked with “++.”)

Nc1nn2cc(Cl)cnc2c1C(=O)Nc1cnccc1N1CCNCC1 [I-N-88, 2-amino-6-chloro-N-(4-(piperazin-1-yl)pyridin-3-yl)pyrazolo[1,5-a]pyrimidine-3-carboxamide]
Cisplatin Sensitization Assay: ++ (Compounds with a Cisplatin sensitization value >0.02 μM but <0.2 μM are marked with “++.”)

N#CCc1cnc2c(C(=O)Nc3cnccc3N3CCNCC3)c(N)nn2c1 [I-N-89, 2-amino-6-(cyanomethyl)-N-(4-(piperazin-1-yl)pyridin-3-yl)pyrazolo[1,5-a]pyrimidine-3-carboxamide]
Cisplatin Sensitization Assay: ++ (Compounds with a Cisplatin sensitization value >0.02 μM but <0.2 μM are marked with “++.”)

N#CCc1cnc2c(C(=O)Nc3cnccc3N3CCOC(CN)C3)c(N)nn2c1 (stereo not drawn) [I-N-90, 2-amino-N-(4-(2-(aminomethyl)morpholino)pyridin-3-yl)-6-(cyanomethyl)pyrazolo[1,5-a]pyrimidine-3-carboxamide]
Cisplatin Sensitization Assay: + (Compounds with a Cisplatin sensitization value >0.2 μM but <5 μM are marked with “+.”)

NCC1CCN(c2ccncc2NC(=O)c2c(N)nn3cc(Cl)cnc23)CC1 [I-N-91, 2-amino-N-(4-(4-(aminomethyl)piperidin-1-yl)pyridin-3-yl)-6-chloropyrazolo[1,5-a]pyrimidine-3-carboxamide]
Cisplatin Sensitization Assay: ++ (Compounds with a Cisplatin sensitization value >0.02 μM but <0.2 μM are marked with “++.”)

CN(C)C1CN(C2CCN(c3ccncc3NC(=O)c3c(N)nn4cc(Cl)cnc34)CC2)C1 [I-N-94, 2-amino-6-chloro-N-(4-(4-(3-(dimethylamino)azetidin-1-yl)piperidin-1-yl)pyridin-3-yl)pyrazolo[1,5-a]pyrimidine-3-carboxamide]
Cisplatin Sensitization Assay: +++ (Compounds with a Cisplatin sensitization value of <0.02 μM are marked with “+++.”)

COC1CCN(C2CCN(c3ccncc3NC(=O)c3c(N)nn4cc(Cl)cnc34)CC2)C1 (stereo not drawn) [I-N-95, 2-amino-6-chloro-N-(4-(4-(3-methoxypyrrolidin-1-yl)piperidin-1-yl)pyridin-3-yl)pyrazolo[1,5-a]pyrimidine-3-carboxamide]
Cisplatin Sensitization Assay: ++ (Compounds with a Cisplatin sensitization value >0.02 μM but <0.2 μM are marked with “++.”)

CN1CCN(C2CCN(c3ccncc3NC(=O)c3c(N)nn4cc(Cl)cnc34)CC2)CC1 [I-N-97, 2-amino-6-chloro-N-(4-(4-(4-methylpiperazin-1-yl)piperidin-1-yl)pyridin-3-yl)pyrazolo[1,5-a]pyrimidine-3-carboxamide]
Cisplatin Sensitization Assay: +++ (Compounds with a Cisplatin sensitization value of <0.02 μM are marked with “+++.”)

Nc1nn2cc(Cl)cnc2c1C(=O)Nc1cnccc1N1CCC(N2CC[C@@H](F)C2)CC1 [I-N-98, (R)-2-amino-6-chloro-N-(4-(4-(3-fluoropyrrolidin-1-yl)piperidin-1-yl)pyridin-3-yl)pyrazolo[1,5-a]pyrimidine-3-carboxamide]
Cisplatin Sensitization Assay: +++ (Compounds with a Cisplatin sensitization value of <0.02 μM are marked with “+++.”)

Nc1nn2cc(Cl)cnc2c1C(=O)Nc1cnccc1N1CCC(N2CCC3(COC3)C2)CC1 [I-N-99, N-(4-(4-(2-oxa-6-azaspiro[3.4]octan-6-yl)piperidin-1-yl)pyridin-3-yl)-2-amino-6-chloropyrazolo[1,5-a]pyrimidine-3-carboxamide]
Cisplatin Sensitization Assay: +++ (Compounds with a Cisplatin sensitization value of <0.02 μM are marked with “+++.”)

Nc1nn2cc(Cl)cnc2c1C(=O)Nc1cnccc1N1CCC(N2CC[S+]([O-])CC2)CC1 [I-N-100, 2-amino-6-chloro-N-(4-(4-(1-oxidothiomorpholino)piperidin-1-yl)pyridin-3-yl)pyrazolo[1,5-a]pyrimidine-3-carboxamide]
Cisplatin Sensitization Assay: ++ (Compounds with a Cisplatin sensitization value >0.02 μM but <0.2 μM are marked with “++.”)

Nc1nn2cc(Cl)cnc2c1C(=O)Nc1cnccc1N1CCC(N2CCn3cncc3C2)CC1 [I-N-101, 2-amino-6-chloro-N-(4-(4-(5,6-dihydroimidazo[1,5-a]pyrazin-7(8H)-yl)piperidin-1-yl)pyridin-3-yl)pyrazolo[1,5-a]pyrimidine-3-carboxamide]
Cisplatin Sensitization Assay: ++ (Compounds with a Cisplatin sensitization value >0.02 μM but <0.2 μM are marked with “++.”)

Nc1nn2cc(Cl)cnc2c1C(=O)Nc1cnccc1N1CCC(N2CCn3ccnc3C2)CC1 [I-N-102, 2-amino-6-chloro-N-(4-(4-(5,6-dihydroimidazo[1,2-a]pyrazin-7(8H)-yl)piperidin-1-yl)pyridin-3-yl)pyrazolo[1,5-a]pyrimidine-3-carboxamide]
Cisplatin Sensitization Assay: ++ (Compounds with a Cisplatin sensitization value >0.02 μM but <0.2 μM are marked with “++.”)

Nc1nn2cc(Cl)cnc2c1C(=O)Nc1cnccc1N1CCC(N2CCOCC2)CC1 [I-N-104, 2-amino-6-chloro-N-(4-(4-morpholinopiperidin-1-yl)pyridin-3-yl)pyrazolo[1,5-a]pyrimidine-3-carboxamide]
Cisplatin Sensitization Assay: +++ (Compounds with a Cisplatin sensitization value of <0.02 μM are marked with “+++.”)
